# Results reported in USRE35748E, “Treatments employing drug containing matrices for introduction into cellular lesion areas” (priority 1995, dated 1998).
# Counter-ions that a name gives are not always drawn.
# Key:
# [1] = Acute animal toxicity / survival; conditions: for Animal Survival: ADM 15 mg/kg, deaths usually within 2 days
# Experimental: The adriamycin in distilled water (4.45 mg/ml) was mixed with 36 mg/ml bovine collagen (BC) 1:1 to yield a composition ratio of 2.25 mg adriamycin:18 mg BC/ml.
# skin overlying the tumor = experiment: Skin reaction of skin overlying the tumor; format: in vivo, C3H/He mice
# Description: The skin reaction is scored as follows:
# 1 = superficial inflammation;
# post injection. The skin reaction is scored as follows:
# (§1) Otherwise, the procedure was the same. The following Table 5 indicates the results.
# (§2) The following Table 6 provides the results.
# white blood cells = experiment: White blood cell count in treated tumor-bearing mice; format: in vivo, C3H/He mice; conditions: 5-FU 100 mg/kg, day 4 post-treatment, mean ± S.E. (Table 3)
# Description: the tail of treatment mice.
# as §1, §2
SMILES,"toxicity ([1]; 15 mg/kg, intratumoral injection)",Animal Survival ([1]; i.p.) [%],Animal Survival ([1]; i.t.) [%],"Skin Reaction (skin overlying the tumor; ADM 15 mg/kg, i.t., Day 8, score 0 = no effect, 1 = superficial inflammation, 2 = scab, 3 = ulcer)",White Blood Cells/mm^3 (white blood cells; i.p.),White Blood Cells/mm^3 (white blood cells; i.t. (EPI 5 mg/kg where present)),"Skin Reaction (skin overlying the tumor; 5-FU 75 mg/Kg, i.p., 5 min before X-rays (1000 rad), score 0-3 (Table 9))","Skin Reaction (skin overlying the tumor; 5-FU 75 mg/Kg, i.p., no X-rays, score 0-3 (Table 9))","Skin Reaction (skin overlying the tumor; 5-FU 100 mg/kg, i.t. (EPI 5 mg/kg where present), Day 8, score 0 = no effect, 1 = superficial inflammation, 2 = scab, 3 = ulcer (Table 3))"
"COc1cccc2c1C(=O)c1c(O)c3c(c(O)c1C2=O)C[C@@](O)(C(=O)CO)C[C@@H]3O[C@H]1C[C@H](N)[C@H](O)[C@H](C)O1 [Free ADM, doxorubicin-HCl]",non-toxic,25,100,2.0,,,,,
"O=c1[nH]cc(F)c(=O)[nH]1 [5-FU, 5-fluorouracil]",,,,,4.5 ± 0.6 Cells/mm^3 (×10^3),3.5 ± 0.5 Cells/mm^3 (×10^3),2,2,0
